These results are taken from publication PMC12531613, “Synthesis and Biological Evaluation of Novel 2‐(Piperidin‐4‐yl)‐1,2,3,4‐tetrahydroisoquinoline and 2‐(Piperidin‐4‐yl)decahydroisoquinoline Antimycotics” (Archiv Der Pharmazie, 2025).

Values after ≈ are worked out from the molar mass of the structure shown. Read-outs that look alike come from different tables or passages of the source.

What all share (format): cell-based
Data set [1] relates to C. albicans. Put plainly: MIC90 microdilution (EUCAST), C. albicans. Particulars: Candida albicans, 24 h. On the procedure: (§1) Determination of MICs (minimal inhibitory concentration) against Candida species was carried out according to the European Committee of Antifungal Susceptibility Testing. Concentration of yeast cells was determined by photometer and adjusted to a turbidity of 0.5 according to McFarland standard. MIC90 was determined by microdilution plate reader (Sunrise Tecan) at 450 nm, after 24 h incubation at 37°C. MIC90 was defined as the minimal concentration of chemical causing 90% growth inhibition, respectively. Growth inhibition of molds was determined by eye and microscopically, following EUCAST guidelines. All substances were dissolved in DMSO and diluted in RPMI 1640 medium, containing 2% glucose. All assays were carried out twice.
A general note: In broth dilution the organism is exposed to a series of concentrations in liquid medium.

For data set [2], the system named is A. fumigatus (A65). Put plainly: MIC90 growth inhibition of molds (EUCAST), A. fumigatus (A65). To be noted: Aspergillus fumigatus, RPMI 1640, 2% glucose, read by eye and microscopically. The procedure:
Determination of MICs (minimal inhibitory concentration) against Candida species was carried out according to the European Committee of Antifungal Susceptibility Testing. Concentration of yeast cells was determined by photometer and adjusted to a turbidity of 0.5 according to McFarland standard. […] Growth inhibition of molds was determined by eye and microscopically, following EUCAST guidelines. […] All assays were carried out twice.

Data set [3] has as its system C. krusei. Put plainly: MIC90 microdilution (EUCAST), C. krusei. To be noted: Pichia kudriavzevii, 24 h. On the procedure:
as §1

In data set [4] the test system is C. glabrata. Put plainly: MIC90 microdilution (EUCAST), C. glabrata. To be noted: Nakaseomyces glabratus, 24 h. On the procedure: as §1
Data set [5] has as its system A. fumigatus (R7). Put plainly: MIC90 growth inhibition of molds (EUCAST), A. fumigatus (R7). To be noted: Aspergillus fumigatus. On the procedure: as §1
Data set [6] concerns A. fumigatus (R16). Put plainly: MIC90 growth inhibition of molds (EUCAST), A. fumigatus (R16). Particulars: Aspergillus fumigatus. On the procedure: as §1
Data set [7] relates to R. microsporus. Put plainly: MIC90 growth inhibition of molds (EUCAST), R. microsporus. Particulars: Rhizopus microsporus. The procedure: as §1
The subject of data set [8] is Yarrowia lipolytica. Put plainly: MIC100 microdilution assay against Yarrowia lipolytica. On the procedure:
In previous research we found a good correlation between MIC values against Yarrowia lipolytica and pathogenic Candida species.
Determination of MICs against Yarrowia lipolytica (DSMZ, Braunschweig, Germany) was carried out according to lit. Yarrowia lipolytica was cultivated in AC‐agar (Sigma Aldrich). Concentration of yeast cells was determined by photometer and adjusted to a turbidity of 0.5 according to McFarland standard at 600 nm. All substances were dissolved in DMSO or methanol.
Determination of MICs (minimal inhibitory concentration) against Yarrowia lipolytica was carried out according to Lit.^[13] Concentration of yeast cells was determined by photometer and adjusted to a turbitity of 0.5 according to McFarland Standard.

The subject of data set [9] is R. arrhizus (oryzae). Put plainly: MIC90 growth inhibition of molds (EUCAST), R. arrhizus (oryzae). Particulars: Rhizopus arrhizus. The procedure: as §1
Data set [10] in a line: MTT cytotoxicity assay against HL 60 cells. To be noted: human, HL-60 cells (human leukemia cells); HL 60 cell line; MTT assay; read-out: IC50 cytotoxicity. The procedure: The cytotoxicity of the active compounds was checked in an MTT assay against human HL 60 cells. […] Although, this corresponds to the MIC range that would be needed in treatment, the values are within the range observed for commonly used antimycotics such as amorolfine and posaconazole. All active compounds were evaluated for their biopharmaceutical behavior and drug‐likeness using the online program SwissADME [26] and should show oral bioavailability according to the Lipinski rules of five.
HL‐60 cells (human leukemia cells, DSM No. ACC3) were obtained from DSMZ (German Collection of Microorganisms and Cell Cultures, Braunschweig, Germany) and cultivated in RPMI 1640 medium with 10% fetal bovine serum (FBS), both from PAA Laboratories, Cölbe, Germany) without the addition of antibiotics at 37°C in a humidified atmosphere containing 5% CO2. The assay was performed according to lit.
A general note: Tetrazolium dyes change colour on reduction, which living cells bring about.

Where [11] appears, read: 48 h, read-out: Biological Activity MIC Yarrowia lipolytica.
[12] abbreviates: microdilution, 48 h, 25°C, 600 nm, read-out: MIC100.

By MIC90 is commonly meant an inhibitory concentration at the 90% level, which refers to growth in some studies and to a panel of isolates in others. As to `COc1cc2c(cc1OC)CN(C1CCN(Cc3ccccc3)CC1)CC2` [7b, 2‐(1‐Benzylpiperidin‐4‐yl)‐6,7‐dimethoxy‐1,2,3,4‐tetrahydroisoquinoline], the MIC90 in data set [1], in data set [2], in data set [3], in data set [4], in data set [5] and in data set [6] was over 32 µg/mL throughout. In addition, the MIC90 in [7] and in [9] was over 32 µg/mL each time. Moreover, the MIC in data set [8] (setting [11]) was over 100 µg/mL; in [8] (48 h, read-out: MIC100) it was over 100 µg/mL.

As for `CCCCCCCC(=O)N1CCC(N2CCc3cc(OC)c(OC)cc3C2)CC1` [5e, 1‐[4‐(6,7‐Dimethoxy‐3,4‐dihydroisoquinolin‐2(1H)‐yl)‐piperidin‐1‐yl]‐octan‐1‐one], the MIC in data set [8] (setting [11]) was over 100 µg/mL; in data set [8] (48 h, read-out: MIC100), over 100 µg/mL.

For orientation: IC50 means the concentration that inhibits the measured activity by half. In the case of `CCC(C)(C)c1ccc(CC(C)CN2C[C@@H](C)O[C@@H](C)C2)cc1` (some centres unmarked) [Amorolfine, reference compound], in data set [10], the IC50 was found to be 17 µg/mL (≈ 53.5 µM).

Consider `CC[C@@H]([C@H](C)O)n1ncn(-c2ccc(N3CCN(c4ccc(OC[C@@H]5CO[C@@](Cn6cncn6)(c6ccc(F)cc6F)C5)cc4)CC3)cc2)c1=O` [Posaconazole, reference compound], for which the IC50 in [10] was 5 µg/mL (≈ 7.13 µM).

In the case of `Clc1ccccc1C(c1ccccc1)(c1ccccc1)n1ccnc1` [Clotrimazole, reference compound], the MIC in [8] (setting [12]) came to 0.4 µg/mL; in [8] (microdilution, same value given in µM, read-out: MIC100 (molar value in brackets)), 1.2 µM.

In the case of `CCCC(=O)N1CCC(N2CCC3CCCCC3C2)CC1` (racemic) [5g, (±)‐1‐[4‐(Octahydroisoquinolin‐2(1H)‐yl)‐piperidin‐1‐yl]‐butan‐1‐one], the MIC in data set [8] (setting [11]) is over 100 µg/mL; in data set [8] (48 h, read-out: MIC100), over 100 µg/mL.

With `CC(C)(C)OC(=O)N1CCC(N2CCC3CCCCC3C2)CC1` (centres unmarked) [3c, tert‐Butyl 4‐(octahydroisoquinolin‐2(1H)‐yl)piperidine‐1‐carboxylate], the MIC in data set [8] (setting [11]) was over 100 µg/mL; in [8] (48 h, read-out: MIC100), over 100 µg/mL.

`CC(C)(C)OC(=O)N1CCC(N2CCc3ccccc3C2)CC1` [3a, tert‐Butyl 4‐(3,4‐dihydroisoquinolin‐2(1H)‐yl)piperidine‐1‐carboxylate]: the MIC in [8] (setting [11]) was over 100 µg/mL; in data set [8] (48 h, read-out: MIC100) it was over 100 µg/mL.

For the compound `CCCCCCCC(=O)N1CCC(N2CCc3ccccc3C2)CC1` [5b, 1‐[4‐(3,4‐Dihydroisoquinolin‐2(1H)‐yl)piperidin‐1‐yl]octan‐1‐one], the MIC in [8] (setting [11]) was over 100 µg/mL; in [8] (48 h, read-out: MIC100), over 100 µg/mL.

With `CCCCCCCCCCCC(=O)N1CCC(N2CCc3cc(OC)c(OC)cc3C2)CC1` [5f, 1‐[4‐(6,7‐Dimethoxy‐3,4‐dihydroisoquinolin‐2(1H)‐yl)piperidin‐1‐yl]dodecan‐1‐one], the MIC in data set [8] (setting [11]) is over 100 µg/mL; in [8] (48 h, read-out: MIC100), over 100 µg/mL.

As to `CCCCN1CCC(N2CCc3cc(OC)c(OC)cc3C2)CC1` [6d, 2‐(1‐Butylpiperidin‐4‐yl)‐6,7‐dimethoxy‐1,2,3,4‐tetrahydroisoquinoline], in data set [10], the IC50 was over 100 µg/mL. Also, the MIC90 in data set [1], in data set [2], in data set [3], in data set [4], in data set [5] and in data set [6] was over 32 µg/mL in each case. Moreover, the MIC90 in [7] and in data set [9] was over 32 µg/mL throughout. Moreover, the MIC in data set [8] (setting [11]) is over 100 µg/mL; in data set [8] (48 h, read-out: MIC100) it was over 100 µg/mL.

Turning to `CCCC(=O)N1CCC(N2CCc3cc(OC)c(OC)cc3C2)CC1` [5d, 1‐[4‐(6,7‐Dimethoxy‐3,4‐dihydroisoquinolin‐2(1H)‐yl)‐piperidin‐1‐yl]butan‐1‐one], the MIC is over 100 µg/mL in [8] (setting [11]) and over 100 µg/mL in data set [8] (48 h, read-out: MIC100).

For the compound `OC(Cn1cncn1)(Cn1cncn1)c1ccc(F)cc1F` [FLZ, fluconazole, reference compound], the MIC90 is 0.25 µg/mL (≈ 0.816 µM) in [1] (C. albicans, RPMI 1640, 2% glucose, 37°C, duplicate, read-out: MIC90); 32 µg/mL (≈ 104 µM) in [2]; 8 µg/mL (≈ 26.1 µM) in data set [3] (C. krusei, RPMI 1640, 2% glucose, 37°C, duplicate, read-out: MIC90); 16 µg/mL (≈ 52.2 µM) in data set [4] (C. glabrata, RPMI 1640, 2% glucose, 37°C, duplicate, read-out: MIC90); 16 µg/mL (≈ 52.2 µM) in data set [5] (A. fumigatus (R7), RPMI 1640, 2% glucose, read by eye and microscopically, read-out: MIC90); over 32 µg/mL in [6] (A. fumigatus (R16), RPMI 1640, 2% glucose, read by eye and microscopically, read-out: MIC90). In addition, the MIC90 was over 32 µg/mL in data set [7] (R. microsporus, RPMI 1640, 2% glucose, read by eye and microscopically, read-out: MIC90); over 32 µg/mL in data set [9] (R. arrhizus (oryzae), RPMI 1640, 2% glucose, read by eye and microscopically, read-out: MIC90).

For `COc1cc2c(cc1OC)CN(C1CCN(CCC(C)CCC=C(C)C)CC1)CC2` (racemic) [6j, (±)‐2‐[1‐(3,7‐Dimethyloct‐6‐en‐1‐yl)piperidin‐4‐yl]‐6,7‐dimethoxy‐1,2,3,4‐tetrahydroisoquinoline], the IC50 in data set [10] stood at 75 µg/mL (≈ 181 µM). Also, the MIC90 in data set [1] is over 32 µg/mL; in data set [2], over 32 µg/mL; in data set [3], 32 µg/mL (≈ 77.2 µM); in data set [4], over 32 µg/mL; in [5] it was over 32 µg/mL; in data set [6], over 32 µg/mL. Further, the MIC90 in data set [7] and in data set [9] was over 32 µg/mL in each case. For the same compound, the MIC worked out at 3.1 µg/mL in [8] (setting [11]); 3.1 µg/mL in [8] (48 h, read-out: MIC100); 7.5 µM in data set [8] (read-out: MIC100 (molar value in brackets)).

Regarding `CCCCCCCCCCCC(=O)N1CCC(N2CCC3CCCCC3C2)CC1` (racemic) [5i, (±)‐1‐[4‐(Octahydroisoquinolin‐2(1H)‐yl)‐piperidin‐1‐yl]‐dodecan‐1‐one], the MIC in [8] (setting [11]) is over 100 µg/mL; in data set [8] (48 h, read-out: MIC100), over 100 µg/mL.

With `CCCCCCCCN1CCC(N2CCc3ccccc3C2)CC1` [6b, 2‐(1‐Octylpiperidin‐4‐yl)‐1,2,3,4‐tetrahydroisoquinoline], the MIC in data set [8] (setting [11]) is 100 µg/mL; in [8] (48 h, read-out: MIC100) it was 100 µg/mL.

Regarding `CCCCCCCC(=O)N1CCC(N2CCC3CCCCC3C2)CC1` (racemic) [5h, (±)‐1‐[4‐(Octahydroisoquinolin‐2(1H)‐yl)piperidin‐1‐yl]octan‐1‐one], the MIC is over 100 µg/mL in data set [8] (setting [11]) and over 100 µg/mL in [8] (48 h, read-out: MIC100).

On to `c1ccc(CN2CCC(N3CCC4CCCCC4C3)CC2)cc1` (centres unmarked) [7c, 2‐(1‐Benzylpiperidin‐4‐yl)decahydroisoquinoline], for which the MIC was over 100 µg/mL in data set [8] (setting [11]) and over 100 µg/mL in [8] (48 h, read-out: MIC100).

Consider `COc1cc2c(cc1OC)CN(C1CCN(C(=O)OC(C)(C)C)CC1)CC2` [3b, tert‐Butyl 4‐(6,7‐dimethoxy‐3,4‐dihydroisoquinolin‐2(1H)‐yl)piperidine‐1‐carboxylate], for which the MIC in data set [8] (setting [11]) was over 100 µg/mL; in data set [8] (48 h, read-out: MIC100), over 100 µg/mL.

Take `COc1cc2c(cc1OC)CN(C1CCNCC1)CC2` [4b, 6,7‐Dimethoxy‐2‐(piperidin‐4‐yl)‐1,2,3,4‐tetrahydroisoquinoline]: the MIC in data set [8] (setting [11]) was over 100 µg/mL; in data set [8] (48 h, read-out: MIC100), over 100 µg/mL.

On to `c1ccc(CN2CCC(N3CCc4ccccc4C3)CC2)cc1` [7a, 2‐(1‐Benzylpiperidin‐4‐yl)‐1,2,3,4‐tetrahydroisoquinoline], for which the MIC90 in [1], in [2], in [3], in data set [4], in data set [5] and in [6] was over 32 µg/mL each time. Also, the MIC90 in data set [7] and in [9] was over 32 µg/mL throughout. The MIC in data set [8] (setting [11]) was over 100 µg/mL; in data set [8] (48 h, read-out: MIC100), over 100 µg/mL.

Regarding `C1CC[C@H]2CN(C3CCNCC3)CC[C@@H]2C1` (racemic) [4c, (±)‐2‐(Piperidin‐4‐yl)decahydroisoquinoline], the MIC in data set [8] (setting [12]) is over 100 µg/mL; in data set [8] (supplement table, MIC100, 48 h, 25°C, 600 nm, read-out: Biological Activity MIC Yarrowia lipolytica), over 100 µg/mL.
